Consider 14 compounds from patent US4960770A, “2-alkyl thieno(triazolo)diazepine compounds and pharmaceutical uses thereof” (Yoshitomi Pharmaceutical Industries, Ltd., priority 1987, dated 1990).

pIC50: −log10 of the molar value. In brackets after ≈: the same amount, converted by molar mass. Like-named read-outs stand apart in the source and are kept apart here.

Test [1] has as its system PAF-induced platelet aggregation. The test can be described thus: Inhibitory effect on platelet aggregation in rabbits (in vitro test). Type of test: cell-based. As to conditions: Oryctolagus cuniculus, rabbit PRP, PAF 1.8×10^-7 M, 37° C., read-out: Inhibition of PAF-induced platelet aggregation, IC50. Here is the method: (§1) Blood samples to which was added 0.1 volume of 3.8% sodium citrate were collected from rabbits. Platelet rich plasma (PRP) was prepared by centrifuging the blood sample at 200 x g for 10 minutes, and platelet poor plasma (PPP) was prepared by centrifuging the remaining blood sample at 1000 x g for 10 minutes.
(§2) Aggregation ability was measured with a turbidimetric device (6-channel NKK Hematracer 1, model PAT-6A) according to the method of G.V.R. Born described in J. Physiology, vol. 168, p. 178 (1963). The aggregometer was adjusted in sensitivity to give light transmission values of 0 and 100% for PRP and PPP, respectively. With stirring at 1000 rpm, 0.3 μl of test compound solution or vehicle was added to 0.3 ml of PRP. After the mixture was kept at 37° C. for 2 minutes, to the mixture was added 3 μl of synthesized platelet activating factor at the final concentration of 1.8×10^-7 M and the light transmission was recorded for 5 minutes.
(§3) The inhibition percentage of test compounds on platelet aggregation were calculated from the following formula by measuring the maximal light transmission in the presence and absence of the test compounds. [formula]

Test [2] has the same test system. Nature of the test: Inhibitory effect on platelet aggregation in rabbits (ex vivo test). As to conditions: 10 mg/kg p.o.; for inhibition at 10 mg/kg: Oryctolagus cuniculus, Platelet, po, read-out: % of inhibition after administration. On the procedure: as §1, §2, §3
Test compound was orally administered to a group of three rabbits instead of adding it to PRP as in vitro test of Experiment 2, and then the citrated blood samples (1 volume of 3.8% sodium citrate +9 volumes of blood) were collected with the passage of time. Then, the blood samples were employed to determine the inhibitory effect according to Experiment 2.

For test [3], the system named is PAF-induced lethal shock. The test can be described thus: Effect of PAF-induced lethal shock in mice. Type of test: in vivo, male ICR mice. As to conditions: 1 hour before PAF 80 μg/kg i.v., 24 hours. On the procedure:
The experiment was carried out according to the method of Young et al. described in Prostaglandins, vol. 30, p. […] Groups of 9 to 15 male ICR mice (Charles River) weighing 25-30 g were used. 80 μg/kg of PAF (Serdary Research Labo.) solution was intravenously administered in a lateral tail vein 1 hour after the oral administration of test compound (0.1 ml/10 g). […] Results were given as number of survivors/number of employed animals and survival rates (%) in Table 4.

The subject of test [4] is coronary artery blood flow. Nature of the test: Effect on coronary flow (coronary artery blood flow in anesthetized dogs). The test is classed as in vivo, mongrel dogs. As to conditions: relative to flow increase at 3 μg nifedipine. On the procedure:
Adult mongrel dogs were anesthetized with sodium pentobarbital (30 mg/kg, i.v.). According to the method of Yago et al described in Folia Pharmacologica Japonica, vol. 57, p. 380 (1961), the left coronary artery was perfused and its blood flow was measured. Test compound was injected into the coronary artery at a volume of 10-30 μl. To determine the effect of the test compound on coronary artery blood flow, an increase percentage of blood flow at each dosage was calculated based on the increase of the blood flow at a dosage of 3 μg of nifedipine.

Test [5] has as its target T1, calmodulin (bovine encephalon) (Bos taurus, UniProt P62157).
T1 construct: calmodulin (bovine encephalon); from tissue; host or cells: bovine encephalon (brain)
The test can be described thus: Calmodulin inhibitory action (NPN fluorescence probe method). Type of test: biochemical. On the procedure:
Calmodulin inhibitory action was measured according to the modified method of Epstein et al. described in Biochemical and Biophysical Research Communications, Vol. 105, p. 1142 (1982). Briefly, to 25 mM Tris-HCl buffer solution (pH 7.0) were added as a final concentration 1 mM calcium chloride, 5 μM N-phenyl-1-naphthylamine (NPN), 1000 units of calmodulin (bovine encephalon) and each of test compound to give 3 ml of final solution volume. The solution was allowed to stand at room temperature for 1 hour and the fluorescence intensity was measured by a fluorescene photometer (ex. 350 nm, em. 440 nm). A blank was prepared by adding water instead of calmodulin. Each of test compound was dissolved in dimethyl sulfoxide or 2.5% dimethyl sulfoxide solution and the final concentration of dimethyl sulfoxide was adjusted to 0.25%.

The target of test [6] is calcium/calmodulin dependent phosphodiesterase. Nature of the test: Effect on calcium/calmodulin dependent phosphodiesterase. The test is classed as biochemical. As to conditions: [3H]-cAMP, pH 8.0, 37° C., 20 minutes; read-out: Inhibitory action on calcium/calmodulin dependent phosphodiesterase IC50. On the procedure:
The experiment was carried out according to the method of Thompson et al. described in Advances in Cyclic Nucleotide Research, Vol. 10, p. 69 (1979). Briefly, the solution of which final volume was 200μl was prepared by mixing 40 μl of 200 mM Tris-HCl buffer solution (pH 8.0), containing 25 mM magnesium chloride and 0.5 mM ethyleneglycol-bis(β-aminoethylether)-N,N '-tetra acetic acid (EGTA), 20 μof 10μM [^3 H]-cAMP (250 nCi), test compound and a solution of calcium/calmodulin dependent phosphodiesterase (PDE) enzyme. The test compound was dissolved in dimethyl sulfoxide to give 1% of final concentration. The incubation was performed at 37° C. for 20 minutes and then stopped by heating for 1 minutes in a boiling water bath. The resulting 5'-AMP was converted into adenosine by adding 50 μl of snake venom (1 mg/ml) and incubating at 30° C. for 10 minutes. Then, to the solution was added 500 μl of AGI-X8 (methanol:resin=3:2) and the mixture was allowed to stand under ice-cooling for 15 minutes with occasional shaking to adsorb the unreacted cAMP. After centrifuging, the radioactivity of the supernatant was measured by a liquid scintillation counter.
The action of the test compound on PDE activity was studied by calculating the inhibition percentage in the absence of calcium/calmodulin from the following formula, and represented as IC50 value. [formula] a: PDE activity in the presence of test compound and in the absence of calmodulin
b: PDE activity in the absence of test compound and calmoduline

Test [7] has as its system vertebral blood flow. The test can be described thus: Effect of vertebral blood flow (anesthetized dogs). Type of test: in vivo, mongrel dogs. As to conditions: Canis lupus familiaris; dose required to obtain 100% of the flow increase by intraartery 3 μg/kg nifedipine. On the procedure: Adult mongrel dogs were anesthetized with sodium pentobarbital (30 mg/kg. i.v.) and the blood flow of the left vertebral artery was measured.

Where [8] appears, read: dosage 30 μg into coronary artery.
The mark [9] stands for this setting: dosage 100 μg into coronary artery.
[10] abbreviates: dosage 300 μg into coronary artery.

A word on the IC50: it is the midpoint of a concentration-inhibition curve. For `CCCCCCc1cc2c(s1)-n1c(C)nnc1CN=C2c1ccccc1Cl` [Example 54, 4-(2-chlorophenyl)-2-hexyl-9-methyl-6H-thieno[3,2-f][1,2,4]triazolo[4,3-a][1,4]diazepine], the IC50 in test [1] is 0.03 to 0.1 µg/mL (≈ 0.0752 to 0.251 µM). Further, the inhibition at 10 mg/kg was 100% in test [2] (1 hour), 100% in test [2] (3 hours) and 85% in test [2] (6 hours). For the same compound, the figures for the “Number of Survivors/Number of Animals” value in test [3] (0.3 mg/kg p.o.) and in test [3] (3 mg/kg p.o.) were 3/10 and 10/10, respectively. For the same compound, the Survival rate in test [3] (0.3 mg/kg p.o.) stood at 30%; in test [3] (3 mg/kg p.o.) it was 100%.
As for `CCCCCCc1cc2c(s1)-n1c(C)nnc1CN=C2c1ccc(C)cc1` [Example 61, 2-hexyl-4-(4-methylphenyl)-9-methyl-6H-thieno[3,2-f][1,2,4]triazolo[4,3-a][1,4]diazepine], the figures for the “Number of Survivors/Number of Animals” value in test [3] (1 mg/kg p.o.) and in test [3] (3 mg/kg p.o.) were 6/8 and 8/8, respectively. Also, the Survival rate in test [3] (1 mg/kg p.o.) is reported as 75%; in test [3] (3 mg/kg p.o.), 100%. The “Effect on coronary blood flow” value in test [4] (setting [8]) is given as 55%; in test [4] (setting [9]) it was 69%; in test [4] (setting [10]), 103%.
As for `CCc1cc2c(s1)-n1c(C)nnc1CN=C2c1ccccc1Cl` [Etizolam, 6-(o-chlorophenyl)-8-ethyl-1-methyl-4H-s-triazolo[3,4-c]thieno[2,3-e][1,4]diazepine, reference compound], the half-inhibitory concentration (IC50) in test [1] is 1.3 µg/mL (≈ 3.79 µM). Moreover, in test [2] (one entry for 1, 3 and 6 hours), the “% of inhibition at each time after administration (in words)” value was “no effect”.
For the compound `CCCCCCc1cc2c(s1)-n1c(C)nnc1CN=C2c1ccccc1C` [Example 58, 2-hexyl-4-(2-methylphenyl)-9-methyl-6H-thieno[3,2-f][1,2,4]triazolo[4,3-a][1,4]diazepine], the entries for the “Effect on coronary blood flow” value in test [4] (setting [8]), in test [4] (setting [9]) and in test [4] (setting [10]) were 63%, 107% and 136%, respectively.
Regarding `CCCCCCCCCCc1cc2c(s1)-n1c(C)nnc1CN=C2c1ccccc1OC` [Example 69, 2-decyl-4-(2-methoxyphenyl)-9-methyl-6H-thieno[3,2-f][1,2,4]triazolo[4,3-a][1,4]diazepine], the IC50 in test [1] was in the range of 0.3 to 1 µg/mL (≈ 0.666 to 2.22 µM).
On to `CCCCCCc1cc2c(s1)-n1c(C)nnc1C(C)N=C2c1ccccc1C` (centres unmarked) [Example 68, 2-hexyl-4-(2-methylphenyl)-6,9-dimethyl 6H-thieno[3,2-f][1,2,4]triazolo[4,3-a][1,4]diazepine], for which the “Number of Survivors/Number of Animals” value in test [3] (0.1 mg/kg p.o.) was 5/6; in test [3] (0.3 mg/kg p.o.) it was 6/7; in test [3] (1 mg/kg p.o.), 6/7. Further, the Survival rate in test [3] (0.1 mg/kg p.o.) is 83.3%; in test [3] (0.3 mg/kg p.o.), 85.7%; in test [3] (1 mg/kg p.o.) it was 85.7%. The pIC50 in test [5] was 5.96. In addition, the “Effect on coronary blood flow” value was determined as 33% in test [4] (setting [8]), 63% in test [4] (setting [9]) and 100% in test [4] (setting [10]).
For `CCOC(=O)C1=C[C@]2(CC)CCCN3CCc4c(n1c1ccccc41)[C@@H]32` [vinpocetine, reference compound], the pIC50 in test [6] is 4.06.
As to `CCCCCCCCCCCCc1cc2c(s1)-n1c(C)nnc1CN=C2c1ccccc1Cl` [Example 73, 4-(2-chlorophenyl)-2-dodecyl-9-methyl-6H-thieno[3,2-f][1,2,4]triazolo[4,3-a][1,4]-diazepine], the IC50 in test [1] was in the range of 0.3 to 1 µg/mL (≈ 0.621 to 2.07 µM).
`CCCCCCCCCCc1cc2c(s1)-n1c(C)nnc1CN=C2c1ccccc1Cl` [Example 72, 4-(2-chlorophenyl)-2-decyl-9-methyl 6H-thieno[3,2-f][1,2,4]triazolo[4,3-a][1,4]-diazepine]: the IC50 in test [1] fell in the range of 0.03 to 0.1 µg/mL (≈ 0.0659 to 0.22 µM).
Consider `CCCCCCc1cc2c(s1)-n1c(C)nnc1CN=C2c1cc(OC)c(OC)c(OC)c1` [Example 67, 2-hexyl-4-(3,4,5-trimethoxyphenyl)-9-methyl-6H-thieno[3,2-f][1,2,4]triazolo[4,3-a][1,4]diazepine], for which, in test [7], the ED100 was 0.078 mg/kg. Moreover, the “Effect on coronary blood flow” value is given as 43% in test [4] (setting [8]), 86% in test [4] (setting [9]) and 114% in test [4] (setting [10]). The pIC50 in test [6] is 5.15.
In turn, `CCCCCCc1cc2c(s1)-n1c(C)nnc1CN=C2c1cc(C)ccc1C` [Example 65, 2-hexyl-4-(2,5-dimethylphenyl)-9-methyl-6H-thieno[3,2-f][1,2,4]triazolo[4,3-a][1,4]diazepine] returned an ED100 in test [7] of 0.099 mg/kg. The pIC50 in test [6] was 4.70.
Take `CCCCCCc1cc2c(s1)-n1c(C)nnc1CN=C2c1ccccc1OC` [Example 55, 2-hexyl-4-(2-methoxyphenyl)-9-methyl-6H-thieno[3,2-f][1,2,4]triazolo[4,3-a][1,4]diazepine]: the IC50 in test [1] fell in the range of 0.03 to 0.1 µg/mL (≈ 0.076 to 0.253 µM).
Consider `CCCCCCc1cc2c(s1)-n1c(C)nnc1CN=C2c1cccc(C)c1` [Example 62, 2-hexyl-4-(3-methylphenyl)-9-methyl-6H-thieno[3,2-f][1,2,4]triazolo[4,3-a][1,4]diazepine], for which, in test [3] (3 mg/kg p.o.), the “Number of Survivors/Number of Animals” value is 6/8 and the Survival rate is reported as 75%. Besides, the pIC50 in test [6] was 4.96.
With `CCCCCCCCc1cc2c(s1)-n1c(C)nnc1CN=C2c1ccccc1Cl` [Example 57, 4-(2-chlorophenyl)-2-octyl-9-methyl-6H-thieno[3,2-f][1,2,4]triazolo[4,3-a][1,4]diazepine], in test [1], the concentration for half-maximal inhibition (IC50) lay within 0.01 to 0.1 µg/mL (≈ 0.0234 to 0.234 µM). Moreover, the pIC50 in test [6] was 4.96.
